Assay results taken from US12053506B2, “Romo1-derived antimicrobial peptides and variants thereof” (priority 2019, dated 2024).
No end group written: not given here.

How the values were obtained:
[1] = tested on: Pseudomonas aeruginosa (ATCC 27853); type: cell-based; conditions: for MBC value (μg/ml) against Pseudomonas aeruginosa: ATCC 27853, 1 h
Outline: (§1)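 Bacteria grown in 3% TSB at 37° C, diluted in 10 mM sodium phosphate/1% TSB to 1×10^5 CFU/ml in wells, exposed to peptides (0–300 μg/ml) for 1 h at 37° C. Mixtures plated on TS agar for 18 h at 37° C; MBC is the lowest concentration giving no colonies.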

[2] = tested on: Staphylococcus aureus (ATCC 29213); type: cell-based; conditions: for MBC value (μg/ml) against Staphylococcus aureus: ATCC 29213, 1 h
Outline: as §1

[3] = tested on: Pseudomonas aeruginosa and Staphylococcus aureus; assay: MBC assay, antibacterial activity of Romo1-derived peptides compared in words; type: cell-based; conditions: Table 1 peptides
Excerpt: Romo1 protein comprises two α-helices. The present inventors synthesized the α-helix 2 region having both hydrophilicity and hydrophobicity, and evaluated the antibacterial activity thereof using minimum bactericidal concentration (MBC) assay. The α-helix 2 region was named KU-5279 (the 52-79 amino acid region of Romo1 protein). Then, in order to identify peptides that are beneficial for human application and have excellent antibacterial activity, the present inventors synthesized several peptides comprising a sequence of contiguous amino acids starting at any amino acid selected from the 52-79 amino acid region of Romo1 protein, and comparatively evaluated the antibacterial activities of the peptides by minimum bactericidal concentration assay (See Table 1 below for information on each peptide). Evaluation of the antibacterial activity of each peptide by minimum bactericidal concentration assay was specifically performed as follows. First, each of Pseudomonas aeruginosa (ATCC 27853) and Staphylococcus aureus (ATCC 29213) was cultured in 3% (w/v) TSB (Tryptic Soy Broth) liquid medium at 37° C. and 200 rpm for 4 hours, and then further cultured under the same conditions for 3 hours to a concentration of 5×10^6 CFU/ml. […]

[4] = tested on: methicillin-resistant Staphylococcus aureus (ATCC 33591); conditions: ATCC 33591, 4 h
[5] = tested on: multidrug-resistant Pseudomonas aeruginosa; conditions: 4 h
Procedure: First, each of Pseudomonas aeruginosa (ATCC 27853) and Staphylococcus aureus (ATCC 29213) was cultured in 3% (w/v) TSB (Tryptic Soy Broth) liquid medium at 37° C. and 200 rpm for 4 hours, and then further cultured under the same conditions for 3 hours to a concentration of 5×10^6 CFU/ml. Strain solutions were prepared by diluting each of the further cultured strains with SP (sodium phosphate; 10 mM sodium phosphate, 1% TSB) buffer to a final concentration of 2×10^5 CFU/ml.
Then, each peptide at varying concentrations (0 μg/ml to 300 μg/ml) was dispensed into each well of a 96-well microplate, and 100 μl (1×10^5 CFU/ml) of each of the prepared strain solutions was added thereto, mixed therewith, and allowed to react with the peptide in an incubator at 37° C. for 1 hour.
In addition, 30 g/L of TS (tryptic soy) and 15 g/L of agar were dissolved in distilled water and sterilized, and then 25 ml of the solution was poured onto a 100 mm round plate and solidified at room temperature for one day or more, thereby preparing a TS agar plate. 10 μl of each reaction solution of the peptide and the strain was plated on the TS agar plate at a constant size, and incubated in an incubator at 37° C. for 18 hours, and then colony formation on the plate was checked.
(§2) Specifically, each type of bacteria was cultured in 3% (w/v) TSB (Tryptic Soy Broth) liquid medium at 37° C. and 200 rpm for 4 hours, and then further cultured under the same conditions for 3 hours to a concentration of 5×10^6 CFU/ml. Strain solutions were prepared by diluting each of the […] of 2×10^5 CFU/ml.
(§3) Then, the KU-5878 peptide at varying concentrations (0 μg/ml to 300 μg/ml) was dispensed into each well of a 96-well microplate, and 100 μl (1×10^5 CFU/ml) of each of the prepared strain solutions was added thereto, mixed therewith, and allowed to react with the peptide in an incubator at 37° C. for 1 hour.
(§4) In addition, 10 μl of each reaction solution of the peptide and the strain was plated on the TS agar plate at a constant size, and incubated in an incubator at 37° C. for 18 hours, and then colony formation on the plate was checked.
(§5) Meanwhile, the multidrug-resistant Pseudomonas aeruginosa, multidrug-resistant Acinetobacter and multidrug-resistant Klebsiella in Table 2 below were bacteria isolated from patients at Korea University Anam Hospital. […] Then, these bacteria were used in the experiment.

[6] = tested on: Streptococcus pneumoniae (NCCP 14585); type: cell-based; conditions: NCCP 14585, 4 h
Procedure: (§6) The minimum bactericidal concentration assay was the same as the method used in Example 1.
as §2, §3
(§7) In addition, 10 μl of each reaction solution of the peptide and the strain was plated on the TS agar plate at a constant size, and incubated in an incubator at 37° C. for 18 hours, and then colony formation on the plate was checked. The minimum bactericidal concentration was defined as the minimum concentration of the peptide at which no colony was formed, and the experimental results are shown in Table 2 below.

[7] = tested on: Acinetobacter baumannii (ATCC 19606); assay: Minimum bactericidal concentration (MBC) assay; type: cell-based
Procedure: as §6, §2, §3, §7

[8] = tested on: Bacillus subtilis (ATCC 6633); assay: Minimum bactericidal concentration (MBC) assay; type: cell-based
Procedure: as §6, §2, §3, §7

[9] = tested on: Enterobacter aerogenes (ATCC 13048); assay: Minimum bactericidal concentration (MBC) assay; type: cell-based
Procedure: as §6, §2, §3, §7

[10] = tested on: Enterococcus faecalis (ATCC 19433); assay: Minimum bactericidal concentration (MBC) assay; type: cell-based
Procedure: as §6, §2, §3, §7

[11] = tested on: Enterococcus faecium (ATCC 19434); assay: Minimum bactericidal concentration (MBC) assay; type: cell-based
Procedure: as §6, §2, §3, §7

[12] = tested on: Escherichia coli (ATCC 25922); assay: Minimum bactericidal concentration (MBC) assay; type: cell-based
Procedure: as §6, §2, §3, §7

[13] = tested on: Klebsiella pneumoniae (ATCC 13883); assay: Minimum bactericidal concentration (MBC) assay; type: cell-based
Procedure: as §6, §2, §3, §7

[14] = tested on: Streptomyces sindenensis (ATCC 12392); assay: Minimum bactericidal concentration (MBC) assay; type: cell-based
Procedure: as §6, §2, §3, §7

[15] = tested on: Multidrug-resistant A. baumannii; conditions: multidrug-resistant, 4 h
Procedure: as §6, §2, §3, §4, §5

[16] = tested on: Multidrug-resistant K. pneumoniae; conditions: multidrug-resistant, 4 h
Procedure: as §6, §2, §3, §4, §5

[17] = tested on: Vancomycin-resistant E. faecium (NCCP 11522); type: cell-based, Enterococcus faecium; conditions: Vancomycin-resistant (NCCP 11522, 4 h)
Procedure: as §6, §2, §3, §7

[18] = tested on: Vancomycin-resistant S. aureus (NCCP 15872); type: cell-based, Staphylococcus aureus; conditions: Vancomycin-resistant (NCCP 15872, 4 h)
Procedure: as §6, §2, §3, §7

mouse red blood cells = type: cell-based
Procedure: Red blood cells were diluted with PBS, centrifuged 3 times at 900 g for 10 minutes, and washed. 100 μl of the diluted red blood cell solution (10% v/v PBS) was dispensed into each well of a 96-well microplate, and KU-5878, KU-5878-K4, KU-5878-K4-D, melittin, magainin 2 or daptomycin was added to each well which was then filled with PBS to 200 μl, followed by reaction by incubation at 37° C. for 1 hour. Then, the supernatant of the reaction solution was separated, and the absorbance at a wavelength of 550 nm was measured using a spectrophotometer. As control, PBS and 0.1% Triton X-100 (Triton X-100) solution were used.
Based on the results of measurement of the absorbance, the degree of red blood cell destruction was calculated according to Equation 1 below, and the results of the calculation are shown in FIG. 6. The % intact RBC=100(%)−[(absorbance of peptide-treated red blood cell solution−absorbance of PBS-treated red blood cell solution)/(absorbance of Triton X-100-treated red blood cell solution−absorbance of PBS-treated red blood cell solution)×100(%)] [Equation 1]

## CLRIGMRGRELM [pCM12, reference compound]
[1]
  MBC value (μg/ml) against Pseudomonas aeruginosa: >300 µg/mL
[2]
  MBC value (μg/ml) against Staphylococcus aureus: >300 µg/mL
[3]
  antibacterial activity by MBC assay, in words: low bactericidal activity

## KKMMKKGGKFGTFMAIGMGIR [KU-5878-K4]
[1]; ATCC 27853
  MBC (μg/ml) value against Pseudomonas aeruginosa: 4 µg/mL
[1]
  MBC value (μg/ml) against Pseudomonas aeruginosa: 4 µg/mL
[2]; ATCC 29213
  MBC (μg/ml) value against Staphylococcus aureus: 3 µg/mL
[2]
  MBC value (μg/ml) against Staphylococcus aureus: 3 µg/mL
[4]
  MBC value (μg/ml) against methicillin-resistant Staphylococcus aureus: 5 µg/mL
[5]
  MBC value (μg/ml) against multidrug-resistant Pseudomonas aeruginosa: 5 µg/mL
[6]
  MBC value (μg/ml), Streptococcus pneumoniae: 4 µg/mL
[7]
  MBC value (μg/ml), Acinetobacter baumannii: 4 µg/mL
[8]
  MBC value (μg/ml), Bacillus subtilis: 5 µg/mL
[9]
  MBC value (μg/ml), Enterobacter aerogenes: 5 µg/mL
[10]
  MBC value (μg/ml), Enterococcus faecalis: 5 µg/mL
[11]
  MBC value (μg/ml), Enterococcus faecium: 5 µg/mL
[12]
  MBC value (μg/ml), Escherichia coli: 5 µg/mL
[13]
  MBC value (μg/ml), Klebsiella pneumoniae: 5 µg/mL
[14]
  MBC value (μg/ml), Streptomyces sindenensis: 5 µg/mL
[15]
  MBC value (μg/ml), Multidrug-resistant A. baumannii: 4 µg/mL
[16]
  MBC value (μg/ml), Multidrug-resistant K. pneumoniae: 5 µg/mL
[17]
  MBC value (μg/ml), Vancomycin-resistant E. faecium: 5 µg/mL
[18]
  MBC value (μg/ml), Vancomycin-resistant S. aureus: 6 µg/mL
Mouse red blood cells
  hemolysis of red blood cells: little hemolysis of red blood cells
